Numbered stars: 1 amine (or outer) side, 2 acyl side, 3 side chain; on linkers, the order of the positions; unused ones are H or OH. Square brackets hold non-standard residues; d marks the D form. Peptide text beside a SMILES is read from it. Phe(4-NO2) = N[C@@H](Cc1ccc([N+](=O)[O-])cc1)C(=O)O; Tyr(3,5-I2) = N[C@@H](Cc1cc(I)c(O)c(I)c1)C(=O)O; X3 = N#[N+]c1ccc(C[C@@H](N[*:1])C(=O)[*:2])cc1; X2 = Nc1c(I)cc(C[C@@H](N[*:1])C(=O)[*:2])cc1I; X4 = Cc1cc(C[C@@H](N[*:1])C(=O)[*:2])cc(C)c1O; X1 = Cc1cc(C[C@H](N[*:1])C(=O)[*:2])cc(C)c1O; Tyr(3-I) = N[C@@H](Cc1ccc(O)c(I)c1)C(=O)O; Phe(4-NH2) = Nc1ccc(C[C@H](N)C(=O)O)cc1; Sar = CNCC(=O)O
How the values were obtained:
[1] = molecular target: T1, Type-1 angiotensin II receptor (Oryctolagus cuniculus) (UniProt P34976); assay: Binding affinity to angiotensin 2 receptor in rabbit aorta
T1 sequence (whole entry): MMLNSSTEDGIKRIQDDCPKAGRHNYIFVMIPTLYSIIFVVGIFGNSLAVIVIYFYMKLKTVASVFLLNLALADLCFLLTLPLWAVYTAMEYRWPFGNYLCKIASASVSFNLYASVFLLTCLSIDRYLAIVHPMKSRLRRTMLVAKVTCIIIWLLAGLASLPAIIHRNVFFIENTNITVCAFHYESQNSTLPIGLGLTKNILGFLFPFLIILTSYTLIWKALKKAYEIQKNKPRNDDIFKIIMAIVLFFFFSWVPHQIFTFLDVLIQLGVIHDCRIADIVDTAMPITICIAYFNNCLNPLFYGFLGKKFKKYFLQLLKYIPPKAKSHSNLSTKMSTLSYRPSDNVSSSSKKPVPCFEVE

Rattus norvegicus = species on record: Rattus norvegicus; assay: Pressor activity in nephrectomized, pentolinium treated rat relative to [Asn1,Val5]AII; assay type: functional

| Compound | Activity [1] [%] | Activity (Rattus norvegicus) [%] |
| --- | --- | --- |
| CNCC(=O)N[C@@H](CCCNC(=N)N)C(=O)N[C@H](C(=O)N[C@H](Cc1ccc(N)cc1)C(=O)N[C@H](C(=O)N[C@@H](Cc1cnc[nH]1)C(=O)N1CCC[C@H]1C(=O)N[C@@H](Cc1ccccc1)C(=O)O)C(C)C)C(C)C | 15 |  |
| CNCC(=O)N[C@@H](CCCNC(=N)N)C(=O)N[C@H](C(=O)N[C@H](Cc1ccc(N=[N+]=[N-])cc1)C(=O)N[C@H](C(=O)N[C@@H](Cc1cnc[nH]1)C(=O)N1CCC[C@H]1C(=O)N[C@@H](Cc1ccccc1)C(=O)O)C(C)C)C(C)C | 0.26 |  |
| CC[C@H](C)[C@H](NC(=O)[C@H](Cc1ccccc1)NC(=O)[C@@H](NC(=O)[C@H](CCCNC(=N)N)NC(=O)[C@@H](N)CC(=O)O)C(C)C)C(=O)N[C@@H](Cc1cnc[nH]1)C(=O)N1CCC[C@H]1C(=O)N[C@@H](Cc1ccccc1)C(=O)O (H-DRVFIHPF-OH) |  | 10 |
| CC[C@H](C)[C@H](NC(=O)[C@H](Cc1ccc(N)cc1)NC(=O)[C@@H](NC(=O)[C@H](CCCNC(=N)N)NC(=O)[C@@H](N)CC(N)=O)C(C)C)C(=O)N[C@@H](Cc1cnc[nH]1)C(=O)N1CCC[C@H]1C(=O)N[C@@H](Cc1ccccc1)C(=O)O (H-NRV[Phe(4-NH2)]IHPF-OH) |  | 24 |
| CC[C@H](C)[C@H](NC(=O)[C@H](Cc1ccc([N+](=O)[O-])cc1)NC(=O)[C@@H](NC(=O)[C@H](CCCNC(=N)N)NC(=O)[C@@H](N)CC(N)=O)C(C)C)C(=O)N[C@@H](Cc1cnc[nH]1)C(=O)N1CCC[C@H]1C(=O)N[C@@H](Cc1ccccc1)C(=O)O (H-NRV[Phe(4-NO2)]IHPF-OH) |  | 0.1 |
| CC(C)[C@H](NC(=O)[C@H](CCCNC(=N)N)NC(=O)[C@@H](N)CC(N)=O)C(=O)N[C@@H](Cc1cc(I)c(O)c(I)c1)C(=O)N[C@H](C(=O)N[C@@H](Cc1cnc[nH]1)C(=O)N1CCC[C@H]1C(=O)N[C@@H](Cc1ccccc1)C(=O)O)C(C)C (H-NRV[Tyr(3,5-I2)]VHPF-OH) |  | 13 |
| CC(C)[C@H](NC(=O)[C@H](CCCNC(=N)N)NC(=O)[C@@H](N)CC(N)=O)C(=O)N[C@@H](Cc1ccc(O)c(I)c1)C(=O)N[C@H](C(=O)N[C@@H](Cc1cnc[nH]1)C(=O)N1CCC[C@H]1C(=O)N[C@@H](Cc1ccccc1)C(=O)O)C(C)C (H-NRV[Tyr(3-I)]VHPF-OH) |  | 33 |
| CC[C@H](C)[C@H](NC(=O)[C@H](Cc1cc(C)c(O)c(C)c1)NC(=O)[C@@H](NC(=O)[C@H](CCCNC(=N)N)NC(=O)[C@@H](N)CC(N)=O)C(C)C)C(=O)N[C@@H](Cc1cnc[nH]1)C(=O)N1CCC[C@H]1C(=O)N[C@@H](Cc1ccccc1)C(=O)O (H-NRV[X1]IHPF-OH) |  | 2.2 |
| CC[C@H](C)[C@H](NC(=O)[C@@H](Cc1cc(C)c(O)c(C)c1)NC(=O)[C@@H](NC(=O)[C@H](CCCNC(=N)N)NC(=O)[C@@H](N)CC(N)=O)C(C)C)C(=O)N[C@@H](Cc1cnc[nH]1)C(=O)N1CCC[C@H]1C(=O)N[C@@H](Cc1ccccc1)C(=O)O (H-NRV[X4]IHPF-OH) |  | 1.4 |
| CNCC(=O)N[C@@H](CCCNC(=N)N)C(=O)N[C@H](C(=O)N[C@H](Cc1cc(I)c(N)c(I)c1)C(=O)N[C@H](C(=O)N[C@@H](Cc1cnc[nH]1)C(=O)N1CCC[C@H]1C(=O)N[C@@H](Cc1ccccc1)C(=O)O)C(C)C)C(C)C (H-[Sar]RV[X2]VHPF-OH) | 2.7 |  |
| CNCC(=O)N[C@@H](CCCNC(=N)N)C(=O)N[C@H](C(=O)N[C@H](Cc1ccc([N+]#N)cc1)C(=O)N[C@H](C(=O)N[C@@H](Cc1cnc[nH]1)C(=O)N1CCC[C@H]1C(=O)N[C@@H](Cc1ccccc1)C(=O)O)C(C)C)C(C)C (H-[Sar]RV[X3]VHPF-OH) | 0.66 |  |
